Source: patent US12297179B2, “Crystalline and salt forms of an organic compound and pharmaceutical compositions thereof” (Servier Pharmaceuticals LLC, priority 2018, dated 2025)
Values after ≈ are worked out from the molar mass of the structure shown. Where a name gives a salt, the structure may show the parent alone. Read-outs that look alike come from different tables or passages of the source.

Tests used:
Assay type in all cases: physicochemical
[1] = Kinetic solubility in bio-relevant media (SGF/FaSSGF, FaSSIF, FeSSIF) and H2O at 37° C., with pH of supernatant; settings: for Solubility: 37° C.; for pH: supernatant
Procedure: (§1) Weigh 100 mg of sodium chloride into a 50-mL volumetric flask. Add appropriate volume of purified water and sonicate until all solids are completely dissolved. Add sufficient purified water closely to the target volume and adjust to pH 1.6. Weigh 3 mg of FaSSIF/FeSSIF/FaSSGF powder into the volumetric flask and sonicate until the powder is completely dissolved. Dilute to target volume with purified water and mix well.
as §1, with “0.170 g of monobasic sodium phosphate, 0.021 g of sodium hydroxide and 0.31 g” for “100 mg”, “6.5.” for “1.6.”, “110” for “3”
as §1, with “0.41 mL of glacial acetic acid, 0.202 g of sodium hydroxide and 0.594 g” for “100 mg”, “5.0.” for “1.6.”, “560” for “3”
An Agilent 1260 HPLC with DAD detector was utilized and detailed chromatographic conditions for solubility analysis are listed in Table 5.
Kinetic solubility of Tris salt Form A and free acid Form D were measured in three bio-relevant media (SGF, FaSSIF and FeSSIF) at 37° C. In details, ˜30 mg solids were suspended into 4.0 mL of each medium initially and equilibrated via shaking (500 rpm) at 37° C. Approximately 0.8 mL suspension was extracted at each time point of 15/30/60/120 mins and 24 hrs. The supernatant and precipitate were separated by centrifugation (10000 rpm, ˜3 mins) followed by concentration (HPLC) and pH measurement for supernatant and the corresponding solid forms were characterized by XRPD.
Due to the thermodynamic stability of Tris salt Form C, further evaluation was conducted, including kinetic solubility in three bio-relevant media (FaSSGF/FaSSF/FeSSIF) and H2O at 37° C.

[2] = Hygroscopicity by dynamic vapor sorption (DVS); settings: DVS, humidity varied from 0% RH to 80% RH at 25° C.
Procedure: DVS was measured via a SMS (Surface Measurement Systems) DVS Intrinsic. The relative humidity at 25° C. was calibrated against deliquescence point of LiCl, Mg(NO3)2 and KCl.

[3] = Thermodynamic stability: slurry competition between Tris salt Forms A and C; settings: DMSO/EtOH (1:8, v/v) and EtOH, 5° C./RT/50° C./75° C., 7 days
Procedure: The thermodynamic stability relationship between Tris salt Forms A and C was investigated via slurry competition experiments in 2 process related solvent systems, DMSO/EtOH (1:8, v/v) and EtOH at 4 temperature conditions (5° C./RT/50° C./75° C.). Two stages of slurry competition experiments were conducted, of which the first stage included temperature as a variable and the second stage used newly opened reagents to minimize the effect of absorbed moisture. Typical experimental procedures are described below.
About 5-10 mg of crystalline Tris salt Form C was first dissolved in ˜1.0 mL of corresponding solvent to form nearly saturated solution under corresponding temperature (equilibrating method: stirring magnetically, ˜1000 rpm, ˜2 hrs). Then ˜15 mg of each form (crystalline Tris salt Forms A and C) was physically mixed, followed by addition of the nearly saturated solution to form a suspension. The suspensions were then stirred (˜1000 rpm) under corresponding temperature for 7 days (a small amount of solids were sampled at 2 day point in the second stage experiments). The obtained solids were isolated via centrifugation (10000 rpm, 2 mins) and tested by XRPD to confirm the form.

[4] = Thermodynamic stability study: slurry competition among free acid Form A/B/C/D; settings: 50° C. and 70° C.
Procedure: To investigate and compare the thermodynamic stability among the identified four crystalline forms of Compound 1 (free acid Form A/B/C/D), two stages of slurry competition experiments were conducted, of which the first one was to study the anhydrous solvent systems and the second stage was solvent systems with different water activities (aw).
In the first stage, ˜2 mg of each solid form (free acid Form A/B/C/D) was physically mixed first, followed by addition of 0.5 mL solvent to form suspension. At various slurrying conditions, a small amount of solid was isolated after ˜7 days for XRPD test.
To further explore any impact of water content on the conversion relationship, six conditions with different water activities and temperatures were applied. Approximately 2 mg of each solid form (free acid Form A/B/C/D) was mixed and suspended in 1.0 mL corresponding solvent systems. After slurry for ˜1 month, the solids were isolated for XRPD test.

[5] = FaSSIF (blank pH 6.5), 120 mins
[6] = FeSSIF (blank pH 5.0), 120 mins

SMILES	Solubility ([1]; FaSSIF, 15 mins) [µg/mL]	Solubility ([1]; FaSSIF, 30 mins) [µg/mL]	Solubility ([1]; FaSSIF, 60 mins) [µg/mL]	Solubility ([1]; FaSSIF, 120 mins) [µg/mL]	Solubility ([1]; FaSSIF, 24 hrs) [µg/mL]	Solubility ([1]; FeSSIF, 15 mins) [µg/mL]	Solubility ([1]; FeSSIF, 30 mins) [µg/mL]	Solubility ([1]; FeSSIF, 60 mins) [µg/mL]	Solubility ([1]; FeSSIF, 120 mins) [µg/mL]	Solubility ([1]; FeSSIF, 24 hrs) [µg/mL]	Solubility ([1]; SGF, 30 mins) [µg/mL]	Solubility ([1]; SGF, 60 mins) [µg/mL]	Solubility ([1]; SGF, 24 hrs) [µg/mL]	pH ([1]; FaSSIF (blank pH 6.5), 15 mins)	pH ([1]; FaSSIF (blank pH 6.5), 30 mins)	pH ([1]; FaSSIF (blank pH 6.5), 60 mins)	pH [1, 5]	pH ([1]; FaSSIF (blank pH 6.5), 24 hrs)	pH ([1]; FeSSIF (blank pH 5.0), 15 mins)	pH ([1]; FeSSIF (blank pH 5.0), 30 mins)	further results
Cc1ccccc1-c1ccc(-c2cc(C(=O)O)c3c(c2)nnn3C)cc1 [Tris salt Form A]	490	260	200	170	130	160	200	290	81	120	94	100	110	7.5	7.5	7.5	7.5	7.5	5.4	5.5	Solubility ([1]; SGF, 15 mins): 60 µg/mL; solubility at 24 h ([1]; SGF, FaSSIF and FeSSIF, 37 °C, fassgf or other biorelevant, thermodynamic from solid, all SGF/FaSSIF/FeSSIF media, at 24 hours point): > 100 µg/mL; pH ([1]; FeSSIF (blank pH 5.0), 60 mins): 5.5; pH [1, 6]: 5.5; pH ([1]; FeSSIF (blank pH 5.0), 24 hrs): 5.5; pH ([1]; SGF (blank pH 1.8), 15 mins): 6.6; pH ([1]; SGF (blank pH 1.8), 30 mins): 7.2; pH ([1]; SGF (blank pH 1.8), 60 mins): 7.3; pH ([1]; SGF (blank pH 1.8), 120 mins): 7.4; pH ([1]; SGF (blank pH 1.8), 24 hrs): 7.4; moisture uptake [2]: ~5 wt %; form after slurry competition (XRPD), thermodynamic stability [3]: converted to Tris salt Form C
Cc1ccccc1-c1ccc(-c2cc(C(=O)O)c3c(c2)nnn3C)cc1 [free acid Form D]	3.8 (≈ 11.1 µM)	4.3 (≈ 12.5 µM)	4.8 (≈ 14 µM)	5.0 (≈ 14.6 µM)	4.8 (≈ 14 µM)	5.6 (≈ 16.3 µM)	7.3 (≈ 21.3 µM)	5.9 (≈ 17.2 µM)	7.7 (≈ 22.4 µM)	6.4 (≈ 18.6 µM)	0.11 (≈ 0.32 µM)	0.14 (≈ 0.408 µM)	0.18 (≈ 0.524 µM)	6.4	6.5	6.5	6.5	6.4	5.0	5.0	Solubility ([1]; FaSSIF and FeSSIF, 37 °C, fassgf or other biorelevant, thermodynamic from solid, in FaSSIF and FeSSIF, read-out: solubility): 3 to 8 µg/mL (≈ 8.74 to 23.3 µM); solubility at 120 min ([1]; SGF, 37 °C, pH 1.6, fassgf or other biorelevant, thermodynamic from solid, 120 mins): 0.13 µg/mL (≈ 0.379 µM); Solubility ([1]; SGF, 37 °C, pH 1.6, fassgf or other biorelevant, thermodynamic from solid, in SGF, read-out: solubility): < 1 µg/mL; pH ([1]; FeSSIF (blank pH 5.0), 60 mins): 5.0; pH [1, 6]: 5.0; pH ([1]; FeSSIF (blank pH 5.0), 24 hrs): 5.0; pH ([1]; SGF (blank pH 1.8), 15 mins): 2.0; pH ([1]; SGF (blank pH 1.8), 30 mins): 2.1; pH ([1]; SGF (blank pH 1.8), 60 mins): 2.1; pH ([1]; SGF (blank pH 1.8), 120 mins): 2.1; pH ([1]; SGF (blank pH 1.8), 24 hrs): 2.2; moisture uptake ([2]; listed as freeform Type D): ~5 wt %; form after slurry competition (XRPD), thermodynamic stability ([4]; anhydrous solvent systems, slurry at RT, ~7 days): more stable than Form A/B/C; form after slurry competition (XRPD), thermodynamic stability ([4]; solvent mixtures with different water activities (aw: 0~1), RT, ~1 month): more stable than Form A/B/C
